Results: publication PMC8648872, “A host-directed macrocyclic peptide therapeutic for MDR gram negative bacterial infections” (Scientific Reports, 2021)
Where a SMILES comes first, the peptide text is derived from it. Bridges are numbered along the chain shown (N, C = ends).

Assay: LPS neutralization, limulus amebocyte lysate assay
Format: biochemical
Conditions: 0.5 EU/ml LPS, 0.078–5 μg/ml, 37 °C, 30 min; data not shown
Procedure: A limulus amebocyte lysate endotoxin detection assay (Pierce A39553) protocol was employed by preincubating 0.5 EU/ml of LPS with either MTD12813, RTD-1, or colistin (0.078–5 μg/ml) in H20 at 37 °C for 30 min followed by quantifying free LPS per manufacturer’s instructions. All samples were compared to a LPS standard curve to determine the degree of LPS neutralization.

CC[C@H](C)[C@@H]1NC(=O)[C@@H]2CSSC[C@H](NC(=O)[C@H]([C@@H](C)CC)NC(=O)[C@@H]3CSSC[C@H](NC1=O)C(=O)N[C@@H](C(C)C)C(=O)NCC(=O)N[C@@H](CCCNC(=N)N)C(=O)NCC(=O)N3)C(=O)N[C@@H](C(C)C)C(=O)N[C@@H](CCCNC(=N)N)C(=O)N[C@@H](CCCNC(=N)N)C(=O)N[C@@H](CCCNC(=N)N)C(=O)N2 [MTD12813] (cyclo(CICVGRGCICVRRR); disulfide 1-10, 3-8)
LPS inhibition (neutralization): No LPS inhibition
